Assay results published in US20260166016A1, “GPR139 RECEPTOR AGONIST, PREPARATION METHOD THEREFOR, AND APPLICATION THEREOF” (NEUBO APPTECH CO., LTD., priority 2022, published 2026).

The molecules below were run against T1, GPR139 (Homo sapiens, UniProt Q6DWJ6) (assay: GPR139 FLIPR cell calcium signal detection in GPR139-transfected HEK293 cells). Settings: HEK293 cells transfected with GPR139, read-out: EC50 values of compounds for GPR139.
T1 construct: expressed in transfected cells; host or cells: HEK293
T1 sequence (Q6DWJ6 1-353): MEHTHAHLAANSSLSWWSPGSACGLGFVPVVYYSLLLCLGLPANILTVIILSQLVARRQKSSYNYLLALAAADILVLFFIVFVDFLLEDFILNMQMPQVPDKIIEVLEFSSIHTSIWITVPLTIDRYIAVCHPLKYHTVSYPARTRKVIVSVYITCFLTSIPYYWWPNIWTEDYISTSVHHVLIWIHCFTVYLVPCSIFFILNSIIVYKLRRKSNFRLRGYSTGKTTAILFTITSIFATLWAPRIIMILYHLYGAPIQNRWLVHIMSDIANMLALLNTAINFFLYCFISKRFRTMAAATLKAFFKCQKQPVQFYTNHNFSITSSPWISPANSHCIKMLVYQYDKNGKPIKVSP
Type: cell-based
Method: HEK293 cells were grown in a 10 cm culture dish containing DMEM complete medium (containing glutamine, sodium pyruvate, penicillin/streptomycin, 10% fetal bovine serum) and incubated at 37° C. in a 5% CO2 incubator until 90% confluency. Then subculture twice a week at a ratio of 1:5. During cell passaging, the culture medium was first completely removed, washed once with 4 mL of DPBS, and then 3 mL of trypsin digestion solution was added and mixed well. When cell dissociation was observed, the trypsin solution was aspirated and 5 mL of complete DMEM medium was added. The cells were dispersed by pipetting, and 1 mL of cell suspension was added to each of five new 10 cm culture dishes. Then, 7 mL of complete DMEM medium was supplemented to each dish. After mixing, the cells were cultured at 37° C. in a 5% CO2 incubator.
On the transfection day, cells were digested and seeded into one 10 cm culture dish at appropriate density. 6 mL of DMEM/F12 medium (containing glutamine, sodium pyruvate, HEPES, and fetal bovine serum) was added, and the cells were cultured for 5 hours at 37° C. in 5% CO2. A 50 mL sterile centrifuge tube (Tube A) was taken, and 1 mL of serum-free DMEM/F12 medium (containing glutamine, sodium pyruvate, and HEPES) was added, followed by 10 μg of GPR139 DNA. The mixture was mixed well. Another 50 mL sterile centrifuge tube (Tube B) was taken, and 1 mL of serum-free DMEM medium (containing glutamine, sodium pyruvate, and HEPES) was added, followed by 60 μL of Fugene HD transfection reagent. The mixture was mixed well. 1 mL of Fugene HD transfection reagent from Tube B was transferred to Tube A, mixed well, and incubated at room temperature for 20 minutes. 2 mL of DMEM/F12 medium (containing glutamine, sodium pyruvate, HEPES, and fetal bovine serum) was added to Tube A. After mixing, 4 mL of mixture from Tube A was transferred to the prepared 10 cm dish (total volume 10 mL). The cells were cultured for 20-24 hours at 37° C. in 5% CO2.
The next day, the transfected cells were digested with trypsin digestion solution, and appropriate DMEM/F12 medium (containing glutamine, sodium pyruvate, HEPES, penicillin/streptomycin, fetal bovine serum) was added. The cells were seeded into Matrigel coated 384-well plates with a cell density of 6.67×10^6 cells/mL, 30 μL/well. The 384-well plates were cultured at 37° C. in 5% CO2.
On the third day, 10 μL/well of FLIPR dye (diluted in HEPES solution containing Pluronic and Probenecid) was added to the 384-well cell plate. And the plate was incubated for 40 minutes at 37° C. in 5% CO2. Diluted compounds were added to the cell plate and calcium signals were measured using a FLIPR plate reader.
Data were analyzed using XL-fit software to obtain EC50 values for each compound.

Q: Which EC50 does the source give for `C[C@H](NC(=O)CNC(=O)c1cc(F)ccn1)c1ccccc1F` [NRB156] here?
A: 100 to 1000 nM

Q: Which EC50 does the source give for `C[C@H](NC(=O)CNC(=O)c1cc(F)cc(C(F)(F)F)n1)c1c(F)cccc1F` [NRB214] here?
A: 100 to 1000 nM

Q: How did the EC50 turn out when `C[C@H](NC(=O)CNC(=O)c1cccc(F)c1)c1ccccc1F` [NRB153] was run?
A: 0.1 to 100 nM

Q: For `COc1cc(F)nc(C(=O)NCC(=O)N[C@@H](C)c2c(F)cccc2F)c1` [NRB215], which EC50 is on record?
A: 0.1 to 100 nM

Q: How did the EC50 turn out when `C[C@H](NC(=O)CNC(=O)c1cc(F)cc(F)c1)c1c(F)cccc1F` [NRB202] was run?
A: 0.1 to 100 nM

Q: With `COc1cc(Cl)cc(C(=O)NCC(=O)N[C@@H](C)c2c(F)cccc2F)n1` [NRB221] as the molecule, how does the EC50 read?
A: 100 to 1000 nM

Q: For `C[C@H](NC(=O)CNC(=O)c1cc(Cl)cc(F)n1)c1c(F)cc(F)cc1F` [NRB225], which EC50 is on record?
A: 0.1 to 100 nM

Q: With `COc1cc(F)nc(C(=O)NCC(=O)N[C@@H](C)c2ccccc2F)c1` [NRB211] as the molecule, how does the EC50 read?
A: 0.1 to 100 nM

Q: With `C[C@H](NC(=O)CNC(=O)c1cccc(Cl)c1)c1cc(F)ccc1F` [NRB178] as the molecule, how does the EC50 read?
A: 0.1 to 100 nM

Q: `C[C@H](NC(=O)CNC(=O)c1cc(Cl)cc(Cl)c1)c1c(F)cccc1F` [NRB216] was tested. Which EC50 did it give?
A: 0.1 to 100 nM

Q: With `C[C@H](NC(=O)CNC(=O)c1cccc(F)c1)c1c(F)cccc1F` [NRB154] as the molecule, how does the EC50 read?
A: 100 to 1000 nM

Q: For `C[C@H](NC(=O)CNC(=O)c1cccc(Cl)c1)c1cccc(F)c1F` [NRB180], which EC50 is on record?
A: 0.1 to 100 nM

Q: Which EC50 does the source give for `C[C@H](NC(=O)CNC(=O)c1cc(Cl)cc(C(F)(F)F)n1)c1c(F)cc(F)cc1F` [NRB227] here?
A: 100 to 1000 nM

Q: How did the EC50 turn out when `C[C@H](NC(=O)CNC(=O)c1cc(Cl)cc(C(F)(F)F)n1)c1c(F)cccc1F` [NRB222] was run?
A: 100 to 1000 nM
